Entries after “also recorded” stand apart in the source; their conditions may differ.
Columns and labels:
Type in all cases: cell-based
hP2X7 [1] = target: T1, hP2X7 (Homo sapiens, UniProt Q99572); assay: YO-PRO 1 dye uptake assay, 1321 N1 cells stably transfected with hP2X7; conditions: for activity in YO-PRO 1 dye uptake screen / reduction of P2X7 activation: compound 30 μM, 700 μM ATP; for reduction of P2X7 activation: 0.3% DMSO
T1 construct: expressed in transfected cells; host or cells: HEK-293, stably transfected (gift of E. Adinolfi's group, Ferrara University)
T1 sequence (Q99572 1-595): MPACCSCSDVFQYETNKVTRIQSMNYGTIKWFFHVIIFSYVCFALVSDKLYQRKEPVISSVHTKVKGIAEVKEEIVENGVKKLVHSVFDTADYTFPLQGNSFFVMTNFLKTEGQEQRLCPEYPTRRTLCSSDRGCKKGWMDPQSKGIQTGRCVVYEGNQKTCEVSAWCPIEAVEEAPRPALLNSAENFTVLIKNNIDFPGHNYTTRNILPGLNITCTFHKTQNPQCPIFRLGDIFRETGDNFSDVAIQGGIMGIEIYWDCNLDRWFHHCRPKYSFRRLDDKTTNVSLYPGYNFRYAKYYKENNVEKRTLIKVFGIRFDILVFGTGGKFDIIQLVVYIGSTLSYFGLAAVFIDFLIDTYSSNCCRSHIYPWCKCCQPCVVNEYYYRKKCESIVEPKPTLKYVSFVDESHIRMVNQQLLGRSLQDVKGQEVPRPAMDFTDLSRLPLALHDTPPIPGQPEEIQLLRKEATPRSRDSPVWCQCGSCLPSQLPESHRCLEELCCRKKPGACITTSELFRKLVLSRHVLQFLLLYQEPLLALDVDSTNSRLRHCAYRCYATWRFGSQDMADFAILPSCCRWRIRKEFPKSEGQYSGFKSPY
Description: Astrocytoma 1321 N1 (established by Dr. Gaia Pasqualetto) and HEK-293 (kindly gifted by E. Adinolfi’s group, Ferrara University) both stably transfected with hP2X7, were used to assess the activity of the small molecules selected from the VS. Cells were maintained in DMEM:F12 (PanBiotech) supplemented with 10% FBS, 1% pen-strep, and 150 μg/mL G418 (PanBiotech).
Astrocytoma 1321 N1 cells (2–2.5 × 10^4 cells/well) and HEK-293 cells (4–5 × 10^4 cells/well) expressing hP2X7 were seeded in poly-L-lysine-coated 96-well plates (Sarstedt) 24 h before the experiment. YO-PRO 1 dye was prepared at 5 μM in extracellular solution with low divalent cations (ECS-LD) buffer (147 mM NaCl, 10 mM HEPES, 13 mM glucose, 0.2 mM CaCl2, 2 mM KCl, pH 7.4) and added to cells after washing them with Dulbecco’s phosphate- buffered saline (DPBS) (PanBiotech) and incubated for 20 min at 37 °C. ATP-induced dye uptake, mediated by hP2X7 activation, was monitored using a Clariostar plate reader (excitation: 485 nm; emission: 538 nm) for 30 cycles (75–150 s/cycle), after recording the baseline for five cycles. hP2X7 activation was quantified at cycle 10 by calculating the fluorescence intensity (FI) ratio (Δ(Fcycle 10–F cycle 1)/cycle time).
The P2X7 receptor, besides being a ligand-gated ion channel, forms large membrane pores following prolonged exposure to high concentrations of ATP, leading to apoptosis (Mackenzie et al. 2005). The YO-PRO 1 dye uptake assay, which measures dye influx through these pores, was selected as the primary screen. The fluorescence of YO-PRO 1 increases when it binds to DNA, enabling real-time monitoring of P2X7 activation (calculated as the rate of increase in fluorescence as YO-PRO 1 binds nuclear DNA).
The screening compounds were tested at 30 μM (0.3% DMSO) in 5 μM YO-PRO 1 dye diluted in freshly prepared ECS-LD buffer. Cells pretreated with the screening compounds were challenged with 700 μM ATP, and the fluorescence intensities were recorded. The negative control consisted of cells treated with 0.3% DMSO, while the positive control was 0.1 μM JNJ47965567, a selective P2X7 antagonist. ,
2 Initial screening assays to identify hit compounds. (A) The compounds were screened at 30 μM in the YO-PRO 1 dye uptake using 1321 N1 cells stably transfected with hP2X7. Compound activity was evaluated along a time of 20 min (75 s per cycle) after ATP addition (700 μM). The fluorescence intensity (FI) values of the first 10 cycles were considered for assessing their ability to inhibit hP2X7. Compound responses were normalized to the fluorescent signal recorded on 0.3% DMSO cells treated with 700 μM ATP of each plate. […] (B) Compounds screened at 10 μM using MPR using 1321 N1 cells stably transfected with hP2X7. The compound activity was evaluated for 5 min after ATP addition (15 s per cycle). The fluorescence intensity recorded in the first cycles (before reaching a plateau response) was considered for assessing the small molecule’s ability to inhibit hP2X7. Compound responses were normalized to the fluorescence signal recorded on 0.1% DMSO cells treated with 700 μM ATP of each plate. […] One-way ANOVA and Dunnet test were used for statistical analysis (****P < 0.0001), (*P < 0.02).

HEK-293 WT cells = assay: Cytotoxicity assay (CellTiter Blue); conditions: 10 μM, 24 h, nontransfected HEK-293 cells
Description: HEK-293 WT cells were seeded at 4 × 10^4 cells/well in 96-well plates precoated with poly-L-lysine. After 24 h, the cells were washed with DPBS and treated with test compounds (10 μM) in 2% FBS-containing medium for 24 h. After this, the medium containing the test compounds was replaced with 20% CellTiter-Blue reagent (Promega) in 2% FBS medium. After a 2-h incubation, fluorescence (excitation: […]; emission: […]) was measured using a Clariostar plate reader. Data were normalized to untreated control cells (100%) and wells without cells (0%).
5 Concentration inhibition curve determination for compound 2g (A) and evaluation of cytotoxicity for compounds 2, 9, and 2g. […] The data on the graph represent the mean from three independent experiments (n = 3 replicates per experiment). (B) The cytotoxicity of the compounds was evaluated on nontransfected HEK-293 cells using a CellTiter Blue assay. The cells were incubated for 24 h with the compounds at 10 μM. The fluorescent signal obtained from vehicle-treated cells (0.1% DMSO) was used to normalize the data to 100%, and the one obtained from wells not containing cells (BLANK) was set as 0%. The data are the combination of three biological replicates (error bars represent the SEM (n = 3)) analyzed by one-way ANOVA using Dunnet’s function (P**** < 0.0001; **< 0.002; * < 0.02; ns, non significant).
The potential cytotoxicity of the hit compounds identified, 2, 9, and 2g, was assessed at 10 μM by CellTiter Blue assay using nontransfected HEK-293 cells (Figure B).

hP2X7 [2] = target: T1, hP2X7; assay: Membrane Potential Red (MPR) dye assay, 1321 N1 cells stably transfected with hP2X7; conditions: compound 10 μM, 700 μM ATP

Hill Slope of ATP concentration-response curve (hP2X7 [1]; YO-PRO 1 uptake, 1321 N1 hP2X7 cells) | EC50 (hP2X7 [1]; YO-PRO 1 uptake, 1321 N1 hP2X7 cells, ATP 1 μM to 10 mM) | activity in YO-PRO 1 dye uptake screen (hP2X7 [1]) | reduction of P2X7 activation (hP2X7 [1]) | SMILES | reduction in cell viability (HEK-293 WT cells) | activity in MPR screen, hP2X7-induced membrane depolarization (hP2X7 [2])
1.161 | 697 ± 203 µM |  |  | Nc1ncnc2c1ncn2[C@@H]1O[C@H](COP(=O)(O)OP(=O)(O)OP(=O)(O)O)[C@@H](O)[C@H]1O [ATP, reference compound] |  | 
 |  | antagonist activity | at least 50% | O=C(NCCc1ccccc1)NC(Cc1ccc2c(c1)OCO2)Cc1ccc2c(c1)OCO2 [Compound 2] | ~10% | active; also recorded: statistically inhibited
 |  | antagonist activity | at least 50% | O=C(CSc1ccccc1C(=O)Nc1ccnn1Cc1cccnc1)Nc1ccc2c(c1)OCO2 [Compound 9] | no significant reduction in cell viability | active; also recorded: statistically inhibited

Source: article PMC12264943, “Identification of New Human P2X7 Antagonists Using Ligand- and Structure-Based Virtual Screening” (Journal of Chemical Information and Modeling, 2025)
